Source: PubChem BioAssay AID2060496 (Molecular Pharmacology Branch, DTP, NCI, 2025)

Tested on: 276233-004-R-J1-PDC complex spheroid viability
Test: Anticancer human tumor 276233-004-R-J1-PDC patient-derived colon adenocarcinoma cell line growth inhibition [GQUAD]
Conditions: for IC50: curve of first compound; for viability, T/C: stronger effect = lower value; active = viability on the fitted dose curve at most 10% of control; inactive = the rest
Method in brief: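 Multi-cell-type spheroids of tumor cells with HUVEC and mesenchymal stem cells, treated with drug combinations. Concentrations descend in half-log steps from near clinical Cmax, or from 10 microM where Cmax is unknown; viability read-out.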

[1] = second compound 0.0316 µM, first compound 0.0316 µM
[2] = second compound 0.0316 µM, first compound 0.1 µM
[3] = second compound 0.0316 µM, first compound 0.316 µM
[4] = second compound 0.0316 µM, first compound 1 µM
[5] = second compound 0.0316 µM, first compound 3.16 µM
[6] = second compound 0.0316 µM, first compound 10 µM
[7] = second compound 0.1 µM, first compound 0.0316 µM
[8] = second compound 0.1 µM, first compound 0.1 µM
[9] = second compound 0.1 µM, first compound 0.316 µM
[10] = second compound 0.1 µM, first compound 1 µM
[11] = second compound 0.1 µM, first compound 3.16 µM
[12] = second compound 0.1 µM, first compound 10 µM
[13] = second compound 0.316 µM, first compound 0.0316 µM
[14] = second compound 0.316 µM, first compound 0.1 µM
[15] = second compound 0.316 µM, first compound 0.316 µM
[16] = second compound 0.316 µM, first compound 1 µM
[17] = second compound 0.316 µM, first compound 3.16 µM
[18] = second compound 0.316 µM, first compound 10 µM
[19] = second compound 1 µM, first compound 0.0316 µM
[20] = second compound 1 µM, first compound 0.1 µM
[21] = second compound 1 µM, first compound 0.316 µM
[22] = second compound 1 µM, first compound 1 µM
[23] = second compound 1 µM, first compound 3.16 µM
[24] = second compound 1 µM, first compound 10 µM
[25] = second compound 3.16 µM, first compound 0.0316 µM
[26] = second compound 3.16 µM, first compound 0.1 µM
[27] = second compound 3.16 µM, first compound 0.316 µM
[28] = second compound 3.16 µM, first compound 1 µM
[29] = second compound 3.16 µM, first compound 3.16 µM
[30] = second compound 3.16 µM, first compound 10 µM
[31] = second compound 10 µM, first compound 0.0316 µM
[32] = second compound 10 µM, first compound 0.1 µM
[33] = second compound 10 µM, first compound 0.316 µM
[34] = second compound 10 µM, first compound 1 µM
[35] = second compound 10 µM, first compound 3.16 µM
[36] = second compound 10 µM, first compound 10 µM
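Also: spheroids exposed to drugs for seven days.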
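For viability, T/C in this document: 100% = DMSO vehicle control viability.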

COc1cc(C2c3cc4c(cc3C(OC3OC5COC(C)OC5C(O)C3O)C3COC(=O)C23)OCO4)cc(OC)c1O (stereo unspecified) + CN(C)c1ccc(Nc2c3ccc(NC(=O)CCN4CCCC4)cc3nc3cc(NC(=O)CCN4CCCC4)ccc23)cc1
3.31 µM: IC50 (second compound 10 µM)
> 10 µM: IC50 (second compound 0.0316 µM) | IC50 (second compound 0.1 µM) | IC50 (second compound 0.316 µM) | IC50 (second compound 1 µM) | IC50 (second compound 3.16 µM)
inactive: viability, T/C [1] 95.7% | viability, T/C [2] 106% | viability, T/C [3] 98.9% | viability, T/C [4] 90.4% | viability, T/C [5] 87% | viability, T/C [6] 98.8% | viability, T/C [7] 75.8% | viability, T/C [8] 88.2% | viability, T/C [9] 92.7% | viability, T/C [10] 82.3% | viability, T/C [11] 77.7% | viability, T/C [12] 78.4% | viability, T/C [13] 60.1% | viability, T/C [14] 69% | viability, T/C [15] 55.5% | viability, T/C [16] 69.4% | viability, T/C [17] 61.2% | viability, T/C [18] 61.3% | viability, T/C [19] 56.6% | viability, T/C [20] 45.2% | viability, T/C [21] 58.5% | viability, T/C [22] 62.3% | viability, T/C [23] 55.4% | viability, T/C [24] 55% | viability, T/C [25] 54.8% | viability, T/C [26] 49% | viability, T/C [27] 52.2% | viability, T/C [28] 56.5% | viability, T/C [29] 61.5% | viability, T/C [30] 54.6% | viability, T/C [31] 46.8% | viability, T/C [32] 59.5% | viability, T/C [33] 47.3% | viability, T/C [34] 57.4% | viability, T/C [35] 45.7% | viability, T/C [36] 48.5%

COc1cc(C2c3cc4c(cc3C(OC3OC5COC(C)OC5C(O)C3O)C3COC(=O)C23)OCO4)cc(OC)c1O (stereo unspecified) + Cc1[nH]c2ccc(F)cc2c1-c1nc2c3cccnc3c3ncccc3c2[nH]1
< 0.0316 µM: IC50 (second compound 10 µM)
> 10 µM: IC50 (second compound 0.0316 µM) | IC50 (second compound 0.1 µM) | IC50 (second compound 0.316 µM) | IC50 (second compound 1 µM)
2.82 µM: IC50 (second compound 3.16 µM)
inactive: viability, T/C [1] 72.9% | viability, T/C [2] 82.7% | viability, T/C [3] 111% | viability, T/C [4] 80.6% | viability, T/C [5] 89.2% | viability, T/C [6] 83.7% | viability, T/C [7] 89.9% | viability, T/C [8] 110% | viability, T/C [9] 84.2% | viability, T/C [10] 78.9% | viability, T/C [11] 83.7% | viability, T/C [12] 76.3% | viability, T/C [13] 79.8% | viability, T/C [14] 79.7% | viability, T/C [15] 85.2% | viability, T/C [16] 101% | viability, T/C [17] 83% | viability, T/C [18] 69% | viability, T/C [19] 78.4% | viability, T/C [20] 65.1% | viability, T/C [21] 71.4% | viability, T/C [22] 64.9% | viability, T/C [23] 73.7% | viability, T/C [24] 64.2% | viability, T/C [25] 53% | viability, T/C [26] 63.3% | viability, T/C [27] 52% | viability, T/C [28] 65.7% | viability, T/C [29] 47.3% | viability, T/C [30] 50.9% | viability, T/C [31] 50.1% | viability, T/C [32] 49.6% | viability, T/C [33] 44.2% | viability, T/C [34] 50.9% | viability, T/C [35] 41% | viability, T/C [36] 45%

CC[C@@]1(O)C(=O)OCc2c1cc1n(c2=O)Cc2cc3c(CN(C)C)c(O)ccc3nc2-1 + CN(C)c1ccc(Nc2c3ccc(NC(=O)CCN4CCCC4)cc3nc3cc(NC(=O)CCN4CCCC4)ccc23)cc1
> 0.316 µM: IC50 (second compound 0.0316 µM) | IC50 (second compound 0.1 µM) | IC50 (second compound 0.316 µM) | IC50 (second compound 1 µM)
inactive: viability, T/C (second compound 0.0316 µM, first compound 0.000999 µM) 89.7% | viability, T/C (second compound 0.0316 µM, first compound 0.00316 µM) 110% | viability, T/C (second compound 0.0316 µM, first compound 0.00999 µM) 91.8% | viability, T/C [1] 103% | viability, T/C (second compound 0.0316 µM, first compound 0.0999 µM) 95.5% | viability, T/C [3] 91.2% | viability, T/C (second compound 0.1 µM, first compound 0.000999 µM) 84.2% | viability, T/C (second compound 0.1 µM, first compound 0.00316 µM) 87.7% | viability, T/C (second compound 0.1 µM, first compound 0.00999 µM) 84.9% | viability, T/C [7] 112% | viability, T/C (second compound 0.1 µM, first compound 0.0999 µM) 86.1% | viability, T/C [9] 85.4% | viability, T/C (second compound 0.316 µM, first compound 0.000999 µM) 68.2% | viability, T/C (second compound 0.316 µM, first compound 0.00316 µM) 84.2% | viability, T/C (second compound 0.316 µM, first compound 0.00999 µM) 66.5% | viability, T/C [13] 58.5% | viability, T/C (second compound 0.316 µM, first compound 0.0999 µM) 64.8% | viability, T/C [15] 82% | viability, T/C (second compound 1 µM, first compound 0.000999 µM) 62.6% | viability, T/C (second compound 1 µM, first compound 0.00316 µM) 56.4% | viability, T/C (second compound 1 µM, first compound 0.00999 µM) 66.7% | viability, T/C [19] 51.6% | viability, T/C (second compound 1 µM, first compound 0.0999 µM) 77.5% | viability, T/C [21] 57.5% | viability, T/C (second compound 3.16 µM, first compound 0.000999 µM) 64.1% | viability, T/C (second compound 3.16 µM, first compound 0.00316 µM) 61.3% | viability, T/C (second compound 3.16 µM, first compound 0.00999 µM) 56.2% | viability, T/C [25] 50% | viability, T/C (second compound 3.16 µM, first compound 0.0999 µM) 52.5% | viability, T/C [27] 46.8% | viability, T/C (second compound 10 µM, first compound 0.000999 µM) 58% | viability, T/C (second compound 10 µM, first compound 0.00316 µM) 58.5% | viability, T/C (second compound 10 µM, first compound 0.00999 µM) 46.7% | viability, T/C [31] 66.1% | viability, T/C (second compound 10 µM, first compound 0.0999 µM) 43.8% | viability, T/C [33] 39.8%
0.093 µM: IC50 (second compound 3.16 µM)
0.0881 µM: IC50 (second compound 10 µM)
